Starred links: 1 amine or outer side, 2 acyl side, 3 side chain; linkers in the order of their positions; H or OH if unused. Positions of bridges follow the written chain, without caps; N, C: chain ends. Non-standard residues stand in square brackets, D forms with d. Residues, ends and D or L forms follow the SMILES beside them. Chains are numbered I, II in the order given. Actinocin(9to1) = Cc1c2oc3c(C)ccc(C(=O)[*:1])c3nc-2c(C(=O)[*:2])c(N)c1=O; NMeV = CN[C@H](C(=O)O)C(C)C; Nle = CCCC[C@H](N)C(=O)O; Sar = CNCC(=O)O
Test system: HeLa (human cancer) cells
Experiment: Cytological dose-response profiling by automated fluorescence microscopy (KS statistic z-scores, 93 descriptors)
Assay type: cell-based
Details: HeLa cells, 20 hrs, thirteen 3-fold dilutions; Y = profile response above signal threshold
Experimental: The known drug set was chosen to cover common mechanisms of toxicity or therapeutic action in cancer and other diseases, and to include several groups with a common target (macromolecule or pathway) but unrelated structures. We analyzed thirteen 3-fold dilutions of each drug, covering a final concentration range on cells from micromolar to picomolar. (Table 3 and Materials & Methods). HeLa (human cancer) cells were cultured in 384-well plates to near confluence, treated with drugs for 20 hrs, fixed, and stained with fluorescent probes for various cell components and processes. We chose 11 distinct probes that covered a range of cell biology, multiplexing a DNA stain and two antibodies per well (the probe sets are: (SC35, anillin), (α-tubulin, actin), (phospho-p38, phospho-ERK), (p53, cFos), (phospho-CREB, calmodulin)). Using automated fluorescence microscopy, we collected images of up to ˜8000 cells from each well. 26 wells on each plate were treated only with DMSO to generate a control population. The experiment was performed twice in parallel to provide a replicate dataset. Image segmentation procedures were used to automatically identify nuclei and nuclear organelles, and cytoplasmic regions were approximated as an annulus surrounding each identified nucleus (FIG. 31A). For each cell, region, and probe, a set of descriptors was measured. These included measures of size, shape, and intensity, as well as ratios of intensities between regions (93 descriptors total, Table S3).
For profiling studies, it is useful to reduce each population of descriptor values to a single number. […] We devised a measure based on the Kolmogorov-Smirnov (KS) statistic, allowing nonparametric comparison of experimental and control distributions from the same plate (FIGS. 31B and 35). […] In particular, the relationship between z-score and the original physical measure may be non-linear.
Cell culture. 20 hours before compound addition, Hela cells grown in […] dishes were trypsinized, resuspended in DMEM supplemented with 10% FCS and 10 ug/mL penicillin/streptomycin, and plated in 384-well plates at an initial density of 3,000 cells per well, 40 uL per well. Compounds were purchased from Sigma (St. Louis, MO), Calbiochem (EMD Biosciences, San Diego, Calif.) and Tocris (Elliksville, MO) and are listed in Table 2. Compound stocks were prepared in DMSO and then arrayed on 384-well plates in 16 consecutive 1:3 serial dilutions in DMSO as outlined in Table 3. The highest and two lowest dilutions (rows A, 0 and P) were not used for subsequent analysis as the wells due to persistent edge effects, leaving us with a series of 13 dilutions. Each stock was diluted 16-fold in warmed culture medium, and 8 μl of this solution was added to the plated cells, resulting in a 96-fold final dilution. All conditions were performed in duplicate in separate plates. Cells were incubated at 37° C. for 20 hours, then fixed in 3% formaldehyde in PBS. All liquid handling was performed using a programmed TekBench (TekCel, Hopkinton, Mass.).
Markers. Five sets of markers were stained by standard immunofluorescence methods in this study.

In the case of Tunicamycin [Compound 55], the “Used in clustering (FIG. 33)” value is reported as “Y”.
`CC(=O)O[C@H]1C(=O)[C@@]2(C)[C@H]([C@H](OC(=O)c3ccccc3)[C@]3(O)C[C@H](OC(=O)[C@H](O)[C@@H](NC(=O)c4ccccc4)c4ccccc4)C(C)=C1C3(C)C)[C@]1(OC(C)=O)CO[C@@H]1C[C@@H]2O` [Compound 53, Taxol] was tested, and the “Used in clustering (FIG. 33)” value was “Y”.
For `CC[C@]1(O)C[C@@H]2CN(CCc3c([nH]c4ccccc34)[C@@](C(=O)OC)(c3cc4c(cc3OC)N(C)[C@H]3[C@@](O)(C(=O)OC)[C@H](OC(C)=O)[C@]5(CC)C=CCN6CC[C@]43[C@@H]65)C2)C1` [Compound 57, Vinblastine], the “Used in clustering (FIG. 33)” value was “Y”.
With `COc1ccc(C[C@H](N)C(=O)N[C@H]2[C@@H](O)[C@H](n3cnc4c(N(C)C)ncnc43)O[C@@H]2CO)cc1` [Compound 45, Puromycin] the “Used in clustering (FIG. 33)” value was “Y”.
For `CC[C@H]1/C=C/C=C/C[C@@H](C)[C@H](O)[C@@](C)(O)C(=O)[C@@H](C)[C@H](O)[C@@H](C)C(=O)[C@@H](C)[C@H](O)[C@@H](C)/C=C/C(=O)O[C@@H]2[C@H](C)[C@H](CC1)O[C@]1(CC[C@H](C)[C@H](C[C@@H](C)O)O1)[C@H]2C` [Compound 90, Oligomycin], the “Used in clustering (FIG. 33)” value was “Y”.
In the case of `COc1cccc2c1C(=O)c1c(O)c3c(c(O)c1C2=O)C[C@@](O)(C(=O)CO)C[C@@H]3O[C@H]1C[C@H](N)[C@H](O)[C@H](C)O1` [Compound 20, Doxorubicin], the “Used in clustering (FIG. 33)” value is reported as “Y”.
In the case of `C[C@@]1(CO)[C@H](O)CC[C@@]2(C)[C@H]1CC[C@H]1C[C@@H]3C[C@@]12CC[C@]3(O)CO` [Compound 81, Aphidicolin], the “Used in clustering (FIG. 33)” value is reported as “Y”.
`CC[C@H](C)C(=O)O[C@H]1CCC=C2C=C[C@H](C)[C@H](CC[C@@H]3C[C@@H](O)CC(=O)O3)[C@H]21` [Compound 37, Mevastatin] was tested, and the “Used in clustering (FIG. 33)” value was “Y”.
In the case of `COC(=O)Nc1nc2ccc(C(=O)c3cccs3)cc2[nH]1` [Compound 91, Nocodazole], the “Used in clustering (FIG. 33)” value is reported as “Y”.
In the case of `CCCC[C@@H](C=O)NC(=O)[C@H](CC(C)C)NC(=O)[C@H](CC(C)C)NC(C)=O` [Compound 5, N-acetyl-Leu-Leu-norleucinal] (Ac-Leu-Leu-[Nle]-aldehyde), the “Used in clustering (FIG. 33)” value is reported as “Y”.
For `CN(Cc1cnc2nc(N)nc(N)c2n1)c1ccc(C(=O)N[C@@H](CCC(=O)O)C(=O)O)cc1` [Compound 83, Methotrexate], the “Used in clustering (FIG. 33)” value was “Y”.
`C[C@@H]1C[C@@H]([C@H](O)CC2CC(=O)NC(=O)C2)C(=O)[C@@H](C)C1` [Compound 14, Cycloheximide] was tested, and the “Used in clustering (FIG. 33)” value was “Y”.
In the case of `O=C1Cc2c([nH]c3ccc([N+](=O)[O-])cc23)-c2ccccc2N1` [Compound 6, Alsterpaullone], the “Used in clustering (FIG. 33)” value is reported as “Y”.
For `COc1ccc(C[C@H]2NC[C@H](O)[C@H]2OC(C)=O)cc1` [Compound 7, Anisomycin], the “Used in clustering (FIG. 33)” value was “Y”.
In the case of `CCCCCCCCCCCCCC(=O)O[C@@H]1[C@@H](C)[C@@]2(O)[C@@H](C=C(CO)C[C@]3(O)C(=O)C(C)=C[C@@H]23)[C@@H]2C(C)(C)[C@]12OC(C)=O` [Compound 43, PMA], the “Used in clustering (FIG. 33)” value is reported as “Y”.
In the case of `C/C1=C/C(=O)O[C@@H]2C[C@@H](CC[C@H](C)/C=C\CC1)O[C@@](O)([C@@H]1CSC(=O)N1)C2` [Compound 36, Latrunculin B], the “Used in clustering (FIG. 33)” value is reported as “Y”.
In the case of `CNc1ccc2oc(C[C@H]3O[C@@]4(CC[C@H]3C)O[C@H]([C@H](C)C(=O)c3ccc[nH]3)[C@H](C)C[C@H]4C)nc2c1C(=O)O` [Compound 2, A23187 free acid], the “Used in clustering (FIG. 33)” value is reported as “Y”.
`Cc1c2oc3c(C)ccc(C(=O)N[C@@H]4C(=O)N[C@H](C(C)C)C(=O)N5CCC[C@H]5C(=O)N(C)CC(=O)N(C)[C@@H](C(C)C)C(=O)O[C@@H]4C)c3nc-2c(C(=O)N[C@@H]2C(=O)N[C@H](C(C)C)C(=O)N3CCC[C@H]3C(=O)N(C)CC(=O)N(C)[C@@H](C(C)C)C(=O)O[C@@H]2C)c(N)c1=O` [Compound 4, Actinomycin D] (I: T[dV]P[Sar][NMeV] / II: T[dV]P[Sar][NMeV]; ester I:1-I:C, II:1-II:C; linker I:N-II:N via Actinocin(9to1)) was tested, and the “Used in clustering (FIG. 33)” value was “Y”.
`COc1cc([C@@H]2c3cc4c(cc3[C@H](O)[C@H]3COC(=O)[C@H]23)OCO4)cc(OC)c1OC` [Compound 44, Podophyllotoxin] was tested, and the “Used in clustering (FIG. 33)” value was “Y”.
`COc1cccc(-c2cc(=O)c3ccccc3o2)c1N` [Compound 63, PD98059] was tested, and the “Used in clustering (FIG. 33)” value was “Y”.
For `C[S+]([O-])c1ccc(-c2nc(-c3ccncc3)c(-c3ccc(F)cc3)[nH]2)cc1` (centres unmarked) [Compound 80, SB203580], the “Used in clustering (FIG. 33)” value was “Y”.
`C[C@@H]1C[C@H]2[C@@H]3CCC4=CC(=O)C=C[C@]4(C)[C@@]3(F)[C@@H](O)C[C@]2(C)[C@@]1(O)C(=O)CO` [Compound 19, Dexamethasone] was tested, and the “Used in clustering (FIG. 33)” value was “Y”.
With `O=C1Nc2ccccc2/C1=C1/Nc2ccccc2/C1=N\O` [Compound 32, Indirubin monoxime] the “Used in clustering (FIG. 33)” value was “Y”.
Oxamflatin [Compound 78] was tested, and the “Used in clustering (FIG. 33)” value was “Y”.
`CCC(=O)CCCCC[C@@H]1NC(=O)[C@H]2CCCCN2C(=O)[C@H]([C@@H](C)CC)NC(=O)[C@H](Cc2cn(OC)c3ccccc23)NC1=O` [Compound 76, Apicidin] was tested, and the “Used in clustering (FIG. 33)” value was “Y”.
In the case of `CCC(C)(C)C(=O)O[C@H]1C[C@@H](C)C=C2C=C[C@H](C)[C@H](CC[C@@H]3C[C@@H](O)CC(=O)O3)[C@H]21` [Compound 70, Simavastatin], the “Used in clustering (FIG. 33)” value is reported as “Y”.
With `CCOC(=O)C1=C(C)NC(=S)NC1c1cccc(O)c1` (centres unmarked) [Compound 39, Monastrol] the “Used in clustering (FIG. 33)” value was “Y”.
`CN1CCN(C2=Nc3cc(Cl)ccc3Nc3ccccc32)CC1` [Compound 64, Clozapine] was tested, and the “Used in clustering (FIG. 33)” value was “Y”.
With `CN[C@@H]1C[C@H]2O[C@@](C)([C@@H]1OC)n1c3ccccc3c3c4c(c5c6ccccc6n2c5c31)C(=O)NC4` [Compound 51, Staurosporine] the “Used in clustering (FIG. 33)” value was “Y”.
`CN(C)CCCN1c2ccccc2Sc2ccc(Cl)cc21` [Compound 62, Chloropromazine] was tested, and the “Used in clustering (FIG. 33)” value was “Y”.
In the case of `Cc1cc(O)c2c(c1)C(=O)c1cc(O)cc(O)c1C2=O` [Compound 22, Emodin], the “Used in clustering (FIG. 33)” value is reported as “Y”.
`C[C@H]1CCC/C=C/[C@@H]2C[C@H](O)C[C@H]2[C@H](O)/C=C/C(=O)O1` [Compound 8, Brefeldin A] was tested, and the “Used in clustering (FIG. 33)” value was “Y”.
`C=C1[C@@H](C)[C@H]2[C@H](Cc3ccccc3)NC(=O)[C@]23[C@H](OC(C)=O)/C=C/[C@@](C)(O)C(=O)[C@@H](C)C/C=C/[C@H]3[C@@H]1O` [Compound 16, Cytochalasin D] was tested, and the “Used in clustering (FIG. 33)” value was “Y”.
In the case of `CC1=C(/C=C/C(C)=C/C=C/C(C)=C/C(=O)O)C(C)(C)CCC1` [Compound 48, Retinoic acid (trans)], the “Used in clustering (FIG. 33)” value is reported as “Y”.
For `C/C1=C\[C@H](C)C[C@H](C)OC(=O)C[C@H](c2ccc(O)cc2)NC(=O)[C@@H](Cc2c(Br)[nH]c3ccccc23)N(C)C(=O)[C@H](C)NC(=O)[C@@H](C)C1` [Compound 34, Jasplakinolide], the “Used in clustering (FIG. 33)” value was “Y”.
Amanitin [Compound 3] was tested, and the “Used in clustering (FIG. 33)” value was “Y”.
For `CC(/C=C/C(=O)NO)=C\[C@@H](C)C(=O)c1ccc(N(C)C)cc1` [Compound 54, Trichostatin], the “Used in clustering (FIG. 33)” value was “Y”.
For `C/C(=C\c1csc(C)n1)[C@@H]1C[C@@H]2O[C@]2(C)CCC[C@H](C)[C@H](O)[C@@H](C)C(=O)C(C)(C)[C@@H](O)CC(=O)O1` [Compound 77, Epothilone B], the “Used in clustering (FIG. 33)” value was “Y”.

Source: patent publication US20060154236A1, “Computer-assisted analysis” (priority 2004, published 2006)
